Data taken from patent US20100041089A1, “IMPROVED METHOD FOR DETECTING CHEMICAL […]” (priority 2006, published 2010).

Tested on: yeast genes (expressed mRNA)
Test: DNA chip measurement of expressed mRNA of yeast genes after culture with a toxic chemical substance
Assay type: cell-based, Saccharomyces cerevisiae S288C
Details: for The level of expressed mRNA in the presence of chemical substance/The level of expressed mRNA in the absence of chemical substance: cultured two hours with substance; for level of expressed mRNA in the presence of chemical substance / level in the absence of chemical substance: cultured two hours with the chemical substance
Procedure, shortened: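 Each expression value is the mRNA level in chemical-treated yeast divided by that in untreated yeast, from Cy3/Cy5 fluorescence on a whole-genome chip. Log-phase S288C cells in YPD at 25° C had received a sublethal, growth-inhibiting dose for two hours. Intensity denotes control expression relative to the all-gene mean.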

Na2As [(1)]
The level of expressed mRNA in the presence of chemical substance/The level of expressed mRNA in the absence of chemical substance (yeast gene YJL151C): 1.0 | The level of expressed mRNA in the presence of chemical substance/The level of expressed mRNA in the absence of chemical substance (yeast gene YJL152W): 0.9 | The level of expressed mRNA in the presence of chemical substance/The level of expressed mRNA in the absence of chemical substance (yeast gene YJL161W): 1.7 | The level of expressed mRNA in the presence of chemical substance/The level of expressed mRNA in the absence of chemical substance (yeast gene YJL171C): 2.3 | The level of expressed mRNA in the presence of chemical substance/The level of expressed mRNA in the absence of chemical substance (yeast gene YJR008W): 1.6 | level of expressed mRNA in the presence of chemical substance / level in the absence of chemical substance (yeast gene YJR030C): 0.7 | The level of expressed mRNA in the presence of chemical substance/The level of expressed mRNA in the absence of chemical substance (yeast gene YJR054W): 0.8 | level of expressed mRNA in the presence of chemical substance / level in the absence of chemical substance (yeast gene YKL051W): 1.0 | The level of expressed mRNA in the presence of chemical substance/The level of expressed mRNA in the absence of chemical substance (yeast gene YKL071W): 8.3 | The level of expressed mRNA in the presence of chemical substance/The level of expressed mRNA in the absence of chemical substance (yeast gene YKL086W): 1.0 | level of expressed mRNA in the presence of chemical substance / level in the absence of chemical substance (yeast gene YKL097C): 0.9 | level of expressed mRNA in the presence of chemical substance / level in the absence of chemical substance (yeast gene YKL100C): 0.7 | The level of expressed mRNA in the presence of chemical substance/The level of expressed mRNA in the absence of chemical substance (yeast gene YKL151C): 1.2 | The level of expressed mRNA in the presence of chemical substance/The level of expressed mRNA in the absence of chemical substance (yeast gene YKL153W): 1.1 | The level of expressed mRNA in the presence of chemical substance/The level of expressed mRNA in the absence of chemical substance (yeast gene YKL195W): 0.8 | level of expressed mRNA in the presence of chemical substance / level in the absence of chemical substance (yeast gene YKR040C): 1.2 | The level of expressed mRNA in the presence of chemical substance/The level of expressed mRNA in the absence of chemical substance (yeast gene YKR091W): 1.5 | The level of expressed mRNA in the presence of chemical substance/The level of expressed mRNA in the absence of chemical substance (yeast gene YLR054C): 2.0 | The level of expressed mRNA in the presence of chemical substance/The level of expressed mRNA in the absence of chemical substance (yeast gene YLR149C): 1.4 | The level of expressed mRNA in the presence of chemical substance/The level of expressed mRNA in the absence of chemical substance (yeast gene YLR152C): 0.7 | The level of expressed mRNA in the presence of chemical substance/The level of expressed mRNA in the absence of chemical substance (yeast gene YLR194C): 2.1 | level of expressed mRNA in the presence of chemical substance / level in the absence of chemical substance (yeast gene YLR226W): 1.0 | The level of expressed mRNA in the presence of chemical substance/The level of expressed mRNA in the absence of chemical substance (yeast gene YLR324W): 0.7 | level of expressed mRNA in the presence of chemical substance / level in the absence of chemical substance (yeast gene YLR338W): 1.1 | The level of expressed mRNA in the presence of chemical substance/The level of expressed mRNA in the absence of chemical substance (yeast gene YLR350W): 1.2 | The level of expressed mRNA in the presence of chemical substance/The level of expressed mRNA in the absence of chemical substance (yeast gene YLR387C): 0.9 | level of expressed mRNA in the presence of chemical substance / level in the absence of chemical substance (yeast gene YLR392C): 1.1 | level of expressed mRNA in the presence of chemical substance / level in the absence of chemical substance (yeast gene YLR415C): 1.1 | level of expressed mRNA in the presence of chemical substance / level in the absence of chemical substance (yeast gene YLR427W): 0.6 | The level of expressed mRNA in the presence of chemical substance/The level of expressed mRNA in the absence of chemical substance (yeast gene YLR460C): 2.1 | level of expressed mRNA in the presence of chemical substance / level in the absence of chemical substance (yeast gene YML013W): 0.8 | level of expressed mRNA in the presence of chemical substance / level in the absence of chemical substance (yeast gene YML029W): 0.6 | level of expressed mRNA in the presence of chemical substance / level in the absence of chemical substance (yeast gene YML041C): 1.2 | level of expressed mRNA in the presence of chemical substance / level in the absence of chemical substance (yeast gene YML079W): 1.0 | The level of expressed mRNA in the presence of chemical substance/The level of expressed mRNA in the absence of chemical substance (yeast gene YML117W): 0.9 | The level of expressed mRNA in the presence of chemical substance/The level of expressed mRNA in the absence of chemical substance (yeast gene YMR009W): 2.3 | The level of expressed mRNA in the presence of chemical substance/The level of expressed mRNA in the absence of chemical substance (yeast gene YMR067C): 0.9 | level of expressed mRNA in the presence of chemical substance / level in the absence of chemical substance (yeast gene YMR068W): 0.9 | level of expressed mRNA in the presence of chemical substance / level in the absence of chemical substance (yeast gene YMR071C): 1.0 | The level of expressed mRNA in the presence of chemical substance/The level of expressed mRNA in the absence of chemical substance (yeast gene YMR090W): 6.9 | The level of expressed mRNA in the presence of chemical substance/The level of expressed mRNA in the absence of chemical substance (yeast gene YMR095C): 1.1 | The level of expressed mRNA in the presence of chemical substance/The level of expressed mRNA in the absence of chemical substance (yeast gene YMR097C): 1.5 | The level of expressed mRNA in the presence of chemical substance/The level of expressed mRNA in the absence of chemical substance (yeast gene YMR102C): 1.0 | The level of expressed mRNA in the presence of chemical substance/The level of expressed mRNA in the absence of chemical substance (yeast gene YMR107W): 5.0 | level of expressed mRNA in the presence of chemical substance / level in the absence of chemical substance (yeast gene YMR160W): 0.8 | The level of expressed mRNA in the presence of chemical substance/The level of expressed mRNA in the absence of chemical substance (yeast gene YMR180C): 1.2 | The level of expressed mRNA in the presence of chemical substance/The level of expressed mRNA in the absence of chemical substance (yeast gene YMR184W): 1.3 | The level of expressed mRNA in the presence of chemical substance/The level of expressed mRNA in the absence of chemical substance (yeast gene YMR191W): 1.3 | The level of expressed mRNA in the presence of chemical substance/The level of expressed mRNA in the absence of chemical substance (yeast gene YMR295C): 1.7 | The level of expressed mRNA in the presence of chemical substance/The level of expressed mRNA in the absence of chemical substance (yeast gene YMR316W): 3.2 | level of expressed mRNA in the presence of chemical substance / level in the absence of chemical substance (yeast gene YNL026W): 0.7 | The level of expressed mRNA in the presence of chemical substance/The level of expressed mRNA in the absence of chemical substance (yeast gene YNL044W): 1.3
